Patent US20120270237A9, “METHODS FOR THE IDENTIFICATION OF KINASE INTERACTING MOLECULES AND FOR THE PURIFICATION OF KINASE PROTEINS” (Cellzone AG, priority 2009, published 2012)

Tests used:
Assay in all cases: Kinobeads competition binding, HL60 cell lysate
Conditions in all cases: 10 μM free compound
[1] = biological target: T1, GAK (Homo sapiens, UniProt O14976)
T1 sequence (O14976 1-1311): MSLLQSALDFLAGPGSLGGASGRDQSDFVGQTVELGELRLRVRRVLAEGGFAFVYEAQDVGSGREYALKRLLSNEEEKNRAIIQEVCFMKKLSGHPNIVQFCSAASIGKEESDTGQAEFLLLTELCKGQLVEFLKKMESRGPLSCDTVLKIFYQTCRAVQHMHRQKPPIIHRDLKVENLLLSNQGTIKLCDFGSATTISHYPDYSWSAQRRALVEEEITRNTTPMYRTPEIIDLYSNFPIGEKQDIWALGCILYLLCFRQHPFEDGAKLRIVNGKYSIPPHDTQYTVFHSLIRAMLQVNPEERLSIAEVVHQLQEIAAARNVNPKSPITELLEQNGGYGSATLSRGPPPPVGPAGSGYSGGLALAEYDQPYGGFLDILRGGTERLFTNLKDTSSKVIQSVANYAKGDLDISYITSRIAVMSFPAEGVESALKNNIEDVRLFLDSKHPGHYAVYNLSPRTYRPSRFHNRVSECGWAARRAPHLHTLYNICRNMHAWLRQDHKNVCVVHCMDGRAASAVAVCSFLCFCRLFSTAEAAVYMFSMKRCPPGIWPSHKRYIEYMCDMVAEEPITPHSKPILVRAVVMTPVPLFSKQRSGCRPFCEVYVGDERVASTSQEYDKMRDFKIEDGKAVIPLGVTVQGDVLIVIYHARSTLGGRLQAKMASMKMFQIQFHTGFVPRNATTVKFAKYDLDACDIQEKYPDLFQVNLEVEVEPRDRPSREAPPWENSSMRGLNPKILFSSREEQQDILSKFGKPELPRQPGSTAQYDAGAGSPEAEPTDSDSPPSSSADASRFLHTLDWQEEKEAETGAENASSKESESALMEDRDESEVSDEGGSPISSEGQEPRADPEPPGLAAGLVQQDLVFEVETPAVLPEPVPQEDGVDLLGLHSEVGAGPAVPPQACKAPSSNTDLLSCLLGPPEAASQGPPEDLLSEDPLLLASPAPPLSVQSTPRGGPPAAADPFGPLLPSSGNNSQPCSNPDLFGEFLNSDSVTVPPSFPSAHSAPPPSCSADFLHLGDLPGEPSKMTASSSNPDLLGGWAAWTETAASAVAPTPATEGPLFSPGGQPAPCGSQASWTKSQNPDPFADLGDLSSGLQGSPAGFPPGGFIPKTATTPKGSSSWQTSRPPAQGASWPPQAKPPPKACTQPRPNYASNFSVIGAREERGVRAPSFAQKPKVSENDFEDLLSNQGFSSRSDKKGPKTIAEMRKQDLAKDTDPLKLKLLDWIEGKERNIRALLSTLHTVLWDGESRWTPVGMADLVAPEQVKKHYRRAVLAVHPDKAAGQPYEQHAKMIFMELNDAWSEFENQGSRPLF
Description: (§1) To one aliquot of cell lysate 10 μM of the free compound (FIG. 3, CZC31326) was added and allowed to bind to proteins in the lysate. Then the affinity matrix with the immobilized compound (Example 1) was added to capture proteins that were not interacting with the previously added free compound. Beads were separated from the lysate and bead bound proteins were eluted in SDS sample buffer and subsequently separated by SDS-Polyacrylamide gel electrophoresis (FIG. 4). Suitable gel bands were cut out and subjected to in-gel proteolytic digestion with trypsin. The second lysate aliquot was processed identically, however no free compound was added (DMSO solvent control). Peptides originating from samples 1 and 2 were labeled with iTRAQ reagents (iTRAQ 114 and iTRAQ 117) and the combined samples were analyzed with a nano-flow liquid chromatography system coupled online to a tandem mass spectrometer (LC-MS/MS) experiment followed by iTRAQ reporter ion quantification in the MS/MS spectra (Ross et al., 2004. Mol. Cell. Proteomics 3(12):1154-1169). Further experimental protocols can be found in WO2006/134056 and a previous publication (Bantscheff et al., 2007. Nature Biotechnology 25, 1035-1044). Sepharose-beads with the immobilized compound (100 μl beads per pull-down experiment) were equilibrated in lysis buffer and incubated with a cell lysate sample containing 50 mg of protein on an end-over-end shaker (Roto Shake Genie, Scientific Industries Inc.) for 2 hours at 4° C. Beads were collected, transferred to Mobicol-columns (MoBiTech 10055) and washed with 10 ml lysis buffer containing 0.4% NP40 detergent, followed by 5 ml lysis buffer containing 0.2% detergent. To elute bound proteins, 60 μl 2×SDS sample buffer was added to the column. The column was incubated for 30 minutes at 50° C. and the eluate was transferred to a siliconized microfuge tube by centrifugation. Proteins were then alkylated with 108 mM iodoacetamid. Proteins were then separated by SDS-Polyacrylamide electrophoresis (SDS-PAGE). The peptide extracts of samples treated with 10 μM of free compound (CZC31326) and the solvent control (0.5% DMSO) were treated with different variants of the isobaric tagging reagent (iTRAQ Reagents Multiplex Kit, part number 4352135, Applied Biosystems, Foster City, Calif., USA). The iTRAQ reagents are a set of multiplexed, amine-specific, stable isotope reagents that can label peptides on amino groups in up to four different biological samples enabling simultaneous identification and quantitation of peptides. The iTRAQ reagents were used according to instructions provided by the manufacturer. The samples were resuspended in 10 μl 50 mM TEAB solution, pH 8.5 and 10 μl ethanol were added. The iTRAQ reagent was dissolved in 120 μl ethanol and 10 μl of reagent solution were added to the sample. The labeling reaction was performed at room temperature for one hour on a horizontal shaker and stopped by adding 5 μl of 100 mM TEAB and 100 mM glycine in water. The two labeled sampled were then combined, dried in a vacuum centrifuge and resuspended in 10 μl of 0.1% formic acid in water. Relative protein quantitation was performed using peak areas of iTRAQ reporter ion signals essentially as described in an earlier publication (Bantscheff et al., 2007. Nature Biotechnology 25, 1035-1044).

[2] = biological target: T2, EphB6 (Homo sapiens, UniProt O15197)
T2 construct: endogenous in cells; host or cells: HL60 (DSMZ ACC3)
Description: as §1

[3] = biological target: T3, HIPK1 (Homo sapiens, UniProt Q86Z02)
T3 construct: endogenous in cells; host or cells: HL60
Description: as §1

T2 sequence (O15197 32-1021): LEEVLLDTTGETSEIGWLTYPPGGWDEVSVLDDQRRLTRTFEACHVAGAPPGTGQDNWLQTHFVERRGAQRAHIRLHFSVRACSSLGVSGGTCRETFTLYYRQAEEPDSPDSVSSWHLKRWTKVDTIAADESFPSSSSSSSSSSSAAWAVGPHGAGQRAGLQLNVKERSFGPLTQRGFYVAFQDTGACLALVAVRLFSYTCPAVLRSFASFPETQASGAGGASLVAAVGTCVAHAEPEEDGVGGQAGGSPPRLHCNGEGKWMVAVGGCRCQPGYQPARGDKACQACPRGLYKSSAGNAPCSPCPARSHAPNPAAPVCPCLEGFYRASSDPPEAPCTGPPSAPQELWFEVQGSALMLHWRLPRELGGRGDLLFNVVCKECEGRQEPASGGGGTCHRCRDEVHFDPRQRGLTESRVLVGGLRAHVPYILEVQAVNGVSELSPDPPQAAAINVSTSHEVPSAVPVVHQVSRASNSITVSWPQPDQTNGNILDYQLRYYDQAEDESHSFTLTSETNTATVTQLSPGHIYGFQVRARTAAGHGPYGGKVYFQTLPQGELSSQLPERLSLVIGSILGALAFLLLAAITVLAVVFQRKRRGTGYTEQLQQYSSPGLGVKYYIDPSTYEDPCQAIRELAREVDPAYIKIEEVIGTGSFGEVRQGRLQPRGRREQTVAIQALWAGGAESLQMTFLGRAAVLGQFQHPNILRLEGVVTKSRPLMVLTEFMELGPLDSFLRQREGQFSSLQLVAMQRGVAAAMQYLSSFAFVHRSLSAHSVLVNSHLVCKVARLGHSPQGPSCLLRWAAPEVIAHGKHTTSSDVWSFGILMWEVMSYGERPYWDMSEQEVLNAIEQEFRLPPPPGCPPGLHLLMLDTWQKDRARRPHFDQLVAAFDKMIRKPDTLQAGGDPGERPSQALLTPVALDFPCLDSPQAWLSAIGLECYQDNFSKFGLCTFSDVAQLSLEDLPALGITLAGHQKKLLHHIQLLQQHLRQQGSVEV
T3 sequence (Q86Z02 whole entry): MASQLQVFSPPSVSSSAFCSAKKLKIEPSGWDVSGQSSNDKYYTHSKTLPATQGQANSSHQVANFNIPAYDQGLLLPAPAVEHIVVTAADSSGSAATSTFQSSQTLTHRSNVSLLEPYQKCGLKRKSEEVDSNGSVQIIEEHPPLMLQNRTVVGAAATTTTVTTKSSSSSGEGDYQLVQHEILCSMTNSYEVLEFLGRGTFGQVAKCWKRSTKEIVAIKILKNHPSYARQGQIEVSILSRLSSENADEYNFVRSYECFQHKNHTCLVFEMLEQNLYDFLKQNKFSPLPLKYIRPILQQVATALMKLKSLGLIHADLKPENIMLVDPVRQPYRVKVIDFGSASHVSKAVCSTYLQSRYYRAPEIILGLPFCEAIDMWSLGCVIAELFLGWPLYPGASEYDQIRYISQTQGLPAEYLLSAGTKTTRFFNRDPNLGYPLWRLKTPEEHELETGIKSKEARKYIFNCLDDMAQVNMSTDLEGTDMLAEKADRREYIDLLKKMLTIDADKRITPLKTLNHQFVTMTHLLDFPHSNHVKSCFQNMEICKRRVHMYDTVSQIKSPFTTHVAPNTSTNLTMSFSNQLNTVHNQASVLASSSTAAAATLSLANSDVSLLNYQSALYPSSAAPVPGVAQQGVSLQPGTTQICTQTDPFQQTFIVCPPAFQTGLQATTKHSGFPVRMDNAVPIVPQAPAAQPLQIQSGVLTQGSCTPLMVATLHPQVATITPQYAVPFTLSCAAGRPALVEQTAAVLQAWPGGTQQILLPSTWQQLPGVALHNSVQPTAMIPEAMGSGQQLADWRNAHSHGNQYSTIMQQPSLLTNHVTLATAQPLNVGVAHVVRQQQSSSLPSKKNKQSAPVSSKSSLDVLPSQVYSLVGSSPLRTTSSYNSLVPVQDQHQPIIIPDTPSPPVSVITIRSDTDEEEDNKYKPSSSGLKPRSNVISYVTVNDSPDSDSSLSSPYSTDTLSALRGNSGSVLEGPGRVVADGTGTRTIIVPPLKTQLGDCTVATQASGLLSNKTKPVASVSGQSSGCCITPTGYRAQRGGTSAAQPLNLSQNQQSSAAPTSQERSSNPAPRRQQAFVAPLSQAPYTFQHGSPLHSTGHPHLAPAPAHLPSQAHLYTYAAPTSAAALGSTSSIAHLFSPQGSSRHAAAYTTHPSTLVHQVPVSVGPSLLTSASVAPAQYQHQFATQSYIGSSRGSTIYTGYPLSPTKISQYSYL

inhibition at 10 µM [1]: 97.9%
inhibition at 10 µM [2]: 93.6%
inhibition at 10 µM [3]: 97.1%
Compound: CS(=O)(=O)Nc1ccccc1Nc1nc(Nc2cccc(OCCN)c2)ncc1Cl [CZC31326, N-(2-(2-(3-(2-aminoethoxy)phenylamino)-5-chloropyrimidin-4-ylamino)phenyl)methanesulfonamide]
